# Source: patent US8124641B2, “Aminotetrahydroindazoloacetic acids” (Hoffmann-La Roche Inc., priority 2008, dated 2012)
# Molecular target: T1, human CRTH2 (Homo sapiens, UniProt Q9Y5Y4)
# T1 construct: expressed in transfected cells
# T1 sequence (Q9Y5Y4 1-395): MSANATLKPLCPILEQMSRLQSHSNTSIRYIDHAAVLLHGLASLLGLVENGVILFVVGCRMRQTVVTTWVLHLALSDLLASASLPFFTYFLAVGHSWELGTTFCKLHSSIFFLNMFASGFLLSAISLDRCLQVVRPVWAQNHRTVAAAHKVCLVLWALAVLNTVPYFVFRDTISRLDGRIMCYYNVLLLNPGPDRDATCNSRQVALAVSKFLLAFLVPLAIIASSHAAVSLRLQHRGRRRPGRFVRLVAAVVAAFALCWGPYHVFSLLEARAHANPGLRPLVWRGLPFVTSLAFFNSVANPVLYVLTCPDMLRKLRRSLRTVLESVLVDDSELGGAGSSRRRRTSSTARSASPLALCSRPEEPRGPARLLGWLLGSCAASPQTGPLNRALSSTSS
# Assay: Human CRTH2 Receptor Binding Assay (whole cell, [3H]ramatroban competition)
# Settings: CHO-K1 cells stably expressing human CRTH2 and G-alpha16; 20 nM [3H]ramatroban; 1 hour, room temperature
# Excerpt: A whole cell receptor binding assay using [^3H]ramatroban as the competing radioactive ligand was employed to evaluate the compound binding activity to human CRTH2. The radioactive ligand [^3H]ramatroban was synthesized according to Sugimoto et. al. (Eur. J. Pharmacol. 524, 30-37, 2005) to a specific activity of 42 Ci/mmol.
# A cell line stably expressing human CRTH2 was established by transfecting CHO-K1 cells with two mammalian expression vectors that harbored human CRTH2 and G-alpha16 cDNAs, respectively, using FuGene® 6 transfection reagent (from Roche). Stable clones expressing CRTH2 were selected by staining each clone with BM16 (BD Pharmingen™ from BD Biosciences, a division of Becton, Dickinson and Company), which is a rat monoclonal antibody to human CRTH2. The cells were maintained as monolayer cultures in Ham's F-12 medium containing 10% fetal bovine serum, 100 units/mL penicillin, 100 μg/mL streptomycin, 2 mM glutamine, 0.5 mg/mL G418 (geneticin) for CRTH2, and 0.2 mg/mL hygromycin-B (for G-alpha 16). For whole cell receptor binding assay, the monolayer cells were rinsed once with PBS (phosphate buffered saline), dissociated using ethylenediaminetetraacetate (Versene™ EDTA from Lonza Inc.), and suspended in PBS containing 10 mM MgCl2 and 0.06% BSA (bovine serum albumin) at 1.5×10^6 cells/mL.
# The binding reactions (0.2 mL) were performed in 96-well plates at room temperature in PBS containing 1.5×10^5 cells, 10 mM MgCl2, 0.06% BSA, 20 nM [^3H]ramatroban, and test compound at various concentrations. After 1 hour of binding reactions, the cells were harvested on GF™/B filter microplates (microtiter plates with embedded glass fiber from PerkinElmer, Inc.) and washed 5 times with PBS using a Filtermate™ Harvester (a cell harvester that harvests and washes cells from microplates from PerkinElmer, Inc.). The radioactivities bound to the cells were determined using a microplate scintillation counter (TopCount® NXT, from PerkinElmer, Inc.) after adding 50 μL of Microscint™ 20 scintillation fluid (from PerkinElmer, Inc.) to each well of the filter plates. The radioactivity from non-specific binding was determined by replacing compound with 10 μM of 15(R)-15-methyl PGD2 (from Cayman Chemical Company) in the reaction mixtures. The radioactivity bound to the cells in the absence of compound (total binding) was determined by replacing compound with 0.25% of DMSO (dimethyl sulfoxide) in the reaction mixture. Specific binding data were obtained by subtracting the radioactivity of non-specific binding from each binding data.
# The IC50 value is defined as the concentration of the tested compound that is required for 50% inhibition of total specific binding. In order to calculate the IC50 value, the percent inhibition data were determined for 7 concentrations for each compound. The percent inhibition for a compound at each concentration was calculated according to the following formula, [1−(specific binding in the presence of compound)/(total specific binding)]×100. The IC50 value was then obtained by fitting the percent inhibition data to a sigmoidal dose-response (4 parameter logistic) model in the XLfit® software Excel add-in program [from ID Business Solutions Ltd., model 205, where F(x)=(A+(B−A)/(1+((C/x)^D)))].
row,IC50,Compound
1,13 nM,"O=C(O)Cn1ncc2c1CCC[C@H]2NS(=O)(=O)c1cc(Br)cc(C(F)(F)F)c1 [Example 1-1a, [(R)-4-(3-Bromo-5-trifluoromethyl-benzenesulfonylamino)-4,5,6,7-tetrahydro-indazol-1-yl]-acetic acid]"
2,386 nM,"O=C(O)Cn1ncc2c1CCCC2NS(=O)(=O)c1cc(Cl)cc(Cl)c1 (stereo not drawn) [Example 1-2a, [4-(3,5-Dichloro-benzenesulfonylamino)-4,5,6,7-tetrahydro-indazol-1-yl]-acetic acid]"
3,234 nM,"O=C(O)Cn1ncc2c1CCCC2NS(=O)(=O)c1ccc(Cl)cc1Cl (stereo not drawn) [Example 1-3a, [4-(2,4-Dichloro-benzenesulfonylamino)-4,5,6,7-tetrahydro-indazol-1-yl]-acetic acid]"
4,16.4 nM,"O=C(O)Cn1ncc2c1CCC[C@H]2NS(=O)(=O)c1cc(C(F)(F)F)cc(C(F)(F)F)c1 [Example 1-4a, [(R)-4-(3,5-Bis-trifluoromethyl-benzenesulfonylamino)-4,5,6,7-tetrahydro-indazol-1-yl]-acetic acid]"
5,225 nM,"Cc1ccc(S(=O)(=O)NC2CCCc3c2cnn3CC(=O)O)cc1[N+](=O)[O-] (stereo not drawn) [Example 1-5a, [4-(4-Methyl-3-nitro-benzenesulfonylamino)-4,5,6,7-tetrahydro-indazol-1-yl]-acetic acid]"
6,397 nM,"Cc1cc(C)cc(S(=O)(=O)NC2CCCc3c2cnn3CC(=O)O)c1 (stereo not drawn) [Example 1-6a, [4-(3,5-Dimethyl-benzenesulfonylamino)-4,5,6,7-tetrahydro-indazol-1-yl]-acetic acid]"
7,35.7 nM,"O=C(O)Cn1ncc2c1CCCC2NS(=O)(=O)c1cc(Br)cc(C(F)(F)F)c1 (stereo not drawn) [Example 1-7a, [4-(3-Bromo-5-trifluoromethyl-benzenesulfonylamino)-4,5,6,7-tetrahydro-indazol-1-yl]-acetic acid]"
8,431 nM,"O=C(O)Cn1ncc2c1CCCC2NS(=O)(=O)c1ccc(Br)c(F)c1 (stereo not drawn) [Example 1-8a, [4-(4-Bromo-3-fluoro-benzenesulfonylamino)-4,5,6,7-tetrahydro-indazol-1-yl]-acetic acid]"
9,277 nM,"Cc1cc(S(=O)(=O)NC2CCCc3c2cnn3CC(=O)O)ccc1Br (stereo not drawn) [Example 1-9a, [4-(4-Bromo-3-methyl-benzenesulfonylamino)-4,5,6,7-tetrahydro-indazol-1-yl]-acetic acid]"
10,119 nM,"O=C(O)Cn1ncc2c1CCCC2NS(=O)(=O)c1ccc(Br)c(C(F)(F)F)c1 (stereo not drawn) [Example 1-10a, [4-(4-Bromo-3-trifluoromethyl-benzenesulfonylamino)-4,5,6,7-tetrahydro-indazol-1-yl]-acetic acid]"
11,291 nM,"O=C(O)Cn1ncc2c1CCCC2NS(=O)(=O)c1cnc(Cl)c(Br)c1 (stereo not drawn) [Example 1-11a, [4-(5-Bromo-6-chloro-pyridine-3-sulfonylamino)-4,5,6,7-tetrahydro-indazol-1-yl]-acetic acid]"
12,53.3 nM,"COc1cc(C(F)(F)F)cc(S(=O)(=O)N[C@@H]2CCCc3c2cnn3CC(=O)O)c1 [Example 1-12a, [(R)-4-(3-Methoxy-5-trifluoromethyl-benzenesulfonylamino)-4,5,6,7-tetrahydro-indazol-1-yl]-acetic acid]"
13,205 nM,"O=C(O)Cn1ncc2c1CCCC2NS(=O)(=O)c1cc(C(F)(F)F)ccc1C(F)(F)F (stereo not drawn) [Example 1-13a, [4-(2,5-Bis-trifluoromethyl-benzenesulfonylamino)-4,5,6,7-tetrahydro-indazol-1-yl]-acetic acid]"
14,43.2 nM,"CS(=O)(=O)c1cccc(S(=O)(=O)NC2CCCc3c2cnn3CC(=O)O)c1 (stereo not drawn) [Example 1-14a, [4-(3-Methanesulfonyl-benzenesulfonylamino)-4,5,6,7-tetrahydro-indazol-1-yl]-acetic acid]"
15,262 nM,"COc1ccc(S(=O)(=O)NC2CCCc3c2cnn3CC(=O)O)cc1C(F)(F)F (stereo not drawn) [Example 1-15a, [4-(4-Methoxy-3-trifluoromethyl-benzenesulfonylamino)-4,5,6,7-tetrahydro-indazol-1-yl]-acetic acid]"
16,5.9 nM,"CS(=O)(=O)c1cc(S(C)(=O)=O)cc(S(=O)(=O)N[C@@H]2CCCc3c2cnn3CC(=O)O)c1 [Example 1-16a, [(R)-4-(3,5-Bis-methanesulfonyl-benzenesulfonylamino)-4,5,6,7-tetrahydro-indazol-1-yl]-acetic acid]"
17,381 nM,"Cc1ccc(S(=O)(=O)NC2CCCc3c2cnn3CC(=O)O)cc1Cl (stereo not drawn) [Example 1-17a, [4-(3-Chloro-4-methyl-benzenesulfonylamino)-4,5,6,7-tetrahydro-indazol-1-yl]-acetic acid]"
18,264 nM,"O=C(O)CCn1ncc2c1CCC[C@H]2NS(=O)(=O)c1cc(C(F)(F)F)cc(C(F)(F)F)c1 [Example 1-18a, 3-[(R)-4-(3,5-Bis-trifluoromethyl-benzenesulfonylamino)-4,5,6,7-tetrahydro-indazol-1-yl]-propionic acid]"
19,12.1 nM,"CN([C@@H]1CCCc2c1cnn2CC(=O)O)S(=O)(=O)c1cc(C(F)(F)F)cc(C(F)(F)F)c1 [Example 2-1a, {(R)-4-[(3,5-Bis-trifluoromethyl-benzenesulfonyl)-methyl-amino]-4,5,6,7-tetrahydro-indazol-1-yl}-acetic acid]"
20,97.8 nM,"CN([C@@H]1CCCc2c1cnn2CC(=O)O)S(=O)(=O)c1ccc(Br)cc1Cl [Example 2-2a, {(R)-4-[(4-Bromo-2-chloro-benzenesulfonyl)-methyl-amino]-4,5,6,7-tetrahydro-indazol-1-yl}-acetic acid]"
21,78.6 nM,"CN([C@@H]1CCCc2c1cnn2CC(=O)O)S(=O)(=O)c1ccc(C(F)(F)F)cc1Cl [Example 2-3a, {(R)-4-[(2-Chloro-4-trifluoromethyl-benzenesulfonyl)-methyl-amino]-4,5,6,7-tetrahydro-indazol-1-yl}-acetic acid]"
22,253 nM,"CN([C@@H]1CCCc2c1cnn2CC(=O)O)S(=O)(=O)c1ccc(Br)cc1F [Example 2-4a, {(R)-4-[(4-Bromo-2-fluoro-benzenesulfonyl)-methyl-amino]-4,5,6,7-tetrahydro-indazol-1-yl}-acetic acid]"
23,11.2 nM,"CN([C@@H]1CCCc2c1cnn2CC(=O)O)S(=O)(=O)c1cc(Br)cc(C(F)(F)F)c1 [Example 2-5a, {(R)-4-[(3-Bromo-5-trifluoromethyl-benzenesulfonyl)-methyl-amino]-4,5,6,7-tetrahydro-indazol-1-yl}-acetic acid]"
24,50.2 nM,"CN([C@@H]1CCCc2c1cnn2CC(=O)O)S(=O)(=O)c1cc(Br)cc(Br)c1 [Example 2-6a, {(R)-4-[(3,5-Dibromobenzenesulfonyl)-methyl-amino]-4,5,6,7-tetrahydro-indazol-1-yl}-acetic acid]"
25,166 nM,"CN([C@@H]1CCCc2c1cnn2CC(=O)O)S(=O)(=O)c1cc(C(C)(C)C)cc(C(C)(C)C)c1 [Example 2-7a, {(R)-4-[(3,5-Di-tert-butyl-benzenesulfonyl)-methyl-amino]-4,5,6,7-tetrahydro-indazol-1-yl}-acetic acid]"
26,43.4 nM,"CN([C@@H]1CCCc2c1cnn2CCC(=O)O)S(=O)(=O)c1cc(C(F)(F)F)cc(C(F)(F)F)c1 [Example 2-8a, 3-{(R)-4-[(3,5-Bis-trifluoromethyl-benzenesulfonyl)-methyl-amino]-4,5,6,7-tetrahydro-indazol-1-yl}-propionic acid]"
27,145 nM,"CCOc1cc(C(F)(F)F)cc(S(=O)(=O)NC2CCCc3c2cnn3CC(=O)O)c1 (stereo not drawn) [Example 3-1a, [4-(3-Ethoxy-5-trifluoromethyl-benzenesulfonylamino)-4,5,6,7-tetrahydro-indazol-1-yl]-acetic acid]"
